This note sets out measurements from ChEMBL document CHEMBL1201862, “PubChem BioAssay data set” (2004).

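Test compounds were applied to cells in 96-well plates for 48 hours at 5 doses. Here, GI50 denotes the concentration required for 50% inhibition of growth.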 The source made the active and inactive calls. Rule as the data show it: active = GI50 up to about 1.1 µM and inactive = higher.

Test systems include 786-0; A549; CCRF-CEM; COLO 205; HCT-15; HOP-62; HT-29; Hs-578T; IGROV-1; K562; KM12; LOX IMVI; Malme-3M; NCI-H226; NCI-H522; NCI/ADR-RES; OVCAR-4; PC-3; SK-MEL-5; SK-OV-3.
What all share (experiment): growth of human tumour cells (NCI), 48 h

Consider `Cn1c2ccc(Cl)cc2c2ccc3c(c21)C(=O)C=CC3=O`, for which the GI50 with 786-0 was > 10 µM (inactive); in the test on A549, > 10 µM (inactive); in the test on CCRF-CEM it was 3.88 µM (inactive); with COLO 205, > 10 µM (inactive); in the test on HCT-15 it was greater than 10 µM; in the test on HOP-62, > 10 µM (inactive). The GI50 is > 10 µM (inactive) with HT-29; > 10 µM (inactive) with Hs-578T; > 10 µM (inactive) in the test with IGROV-1; 9.14 µM (inactive) in the test on K562; > 10 µM (inactive) with KM12; > 10 µM (inactive) in the test on LOX IMVI. The GI50 in the test with Malme-3M, with NCI-H226, with NCI-H522, in the test with NCI/ADR-RES, in the test on OVCAR-4 and in the test on PC-3 was > 10 µM (inactive) in each case. Besides, the GI50 in the test with SK-MEL-5 and in the test on SK-OV-3 was > 10 µM (inactive) in each case.
For `C/C=C/C1OC(O)(C(C)C(O)[C@H](C)C2OC(=O)/C(OC)=C/C(C)=C/[C@@H](C)[C@@H](O)[C@@H](C)C(O)C(C)C/C(C)=C/C=C/C2OC)C[C@@H](OC2CC(O)C(OC(N)=O)C(C)O2)C1C` (stereo not given in full), the GI50 is < 0.01 µM (active) in the test with 786-0; < 0.01 µM (active) in the test on A549; < 0.01 µM (active) in the test on CCRF-CEM; < 0.01 µM (active) in the test with COLO 205; less than 0.01 µM in the test with HCT-15; < 0.01 µM (active) in the test with HOP-62. Also, the GI50 in the test on HT-29 was < 0.01 µM (active); in the test with Hs-578T, 0.889 µM (active); with IGROV-1, < 0.01 µM (active); with K562, < 0.01 µM (active); in the test on KM12, < 0.01 µM (active); in the test with LOX IMVI, < 0.01 µM (active). For the same compound, the GI50 with Malme-3M is < 0.01 µM (active); with NCI-H226, < 0.01 µM (active); with NCI-H522 it was < 0.01 µM (active); in the test with NCI/ADR-RES, < 0.0127 µM (active); in the test on OVCAR-4, 3.04 µM (inactive); in the test on PC-3 it was < 0.01 µM (active). For the same compound, the GI50 was < 0.01 µM (active) in the test on SK-MEL-5 and 2.47 µM (inactive) in the test on SK-OV-3.
Turning to `CC[C@](O)(CC(=O)O[C@H]1C(=O)O[C@@H]2C[C@H]3C(C)=CC(=O)[C@@H](O)[C@]3(C)[C@H]3[C@@]4(O)OC[C@]32[C@@H]1[C@@H](C)[C@H]4O)C(C)C`, the GI50 in the test on 786-0 is < 0.01 µM (active); in the test with A549 it was < 0.01 µM (active); in the test on CCRF-CEM it was < 0.01 µM (active); in the test with COLO 205, < 0.01 µM (active); in the test on HCT-15, less than 0.01 µM; in the test with HOP-62, < 0.01 µM (active). For the same compound, the GI50 in the test with HT-29, in the test with Hs-578T, in the test with IGROV-1, in the test with K562, in the test with KM12 and with LOX IMVI was < 0.01 µM (active) each time. Further, the GI50 in the test on Malme-3M is < 0.01 µM (active); in the test with NCI-H226, < 0.01 µM (active); in the test on NCI-H522, < 0.01 µM (active); in the test with NCI/ADR-RES, < 0.0188 µM (active); in the test with OVCAR-4, < 0.01 µM (active); with PC-3, < 0.01 µM (active). Also, the GI50 in the test with SK-MEL-5 and with SK-OV-3 was < 0.01 µM (active) in each case.
For the compound `CC(C)=CCC[C@@H](C)C1=C(Nc2ccccc2Cl)C(=O)C(C)=C(O)C1=O`, the GI50 in the test on 786-0 was 1.81 µM (inactive); in the test on A549, 3.24 µM (inactive); in the test on CCRF-CEM it was 1.01 µM (active); in the test on COLO 205, 2.84 µM (inactive); in the test on HCT-15 it was 2.38 µM; in the test with HOP-62, 3.45 µM (inactive). The GI50 was 3.56 µM (inactive) in the test on HT-29; 3.42 µM (inactive) in the test on Hs-578T; 2.45 µM (inactive) in the test on IGROV-1; 17.1 µM (inactive) in the test with K562; 3.08 µM (inactive) in the test with KM12; 3.26 µM (inactive) with LOX IMVI. Also, the GI50 in the test with Malme-3M was 4.29 µM (inactive); with NCI-H226, 4.69 µM (inactive); with NCI-H522 it was 2.57 µM (inactive); with NCI/ADR-RES it was 1.1 µM (active); in the test on OVCAR-4, 5.53 µM (inactive); with PC-3, 4.85 µM (inactive). Moreover, the GI50 in the test on SK-MEL-5 is 1.95 µM (inactive); with SK-OV-3 it was 5.14 µM (inactive).
With `COc1cccc(/N=N/C(=N/NC(=O)c2ccc(C)cc2)c2ccc(N(CCC#N)CCC#N)cc2OC)c1`, the GI50 with 786-0 is > 100 µM (inactive); with A549, > 100 µM (inactive); in the test with CCRF-CEM, > 100 µM (inactive); with COLO 205, > 100 µM (inactive); with HCT-15 it was greater than 100 µM; in the test with HOP-62, > 100 µM (inactive). The GI50 is 21.2 µM (inactive) in the test with HT-29; > 100 µM (inactive) in the test with Hs-578T; > 100 µM (inactive) with IGROV-1; > 100 µM (inactive) in the test on K562; > 100 µM (inactive) in the test with KM12; > 100 µM (inactive) in the test on LOX IMVI. The GI50 in the test on Malme-3M, in the test on NCI-H226, in the test on NCI-H522, in the test on NCI/ADR-RES, in the test on OVCAR-4 and in the test with PC-3 was > 100 µM (inactive) throughout. For the same compound, the GI50 with SK-MEL-5 and with SK-OV-3 was > 100 µM (inactive) in each case.
Turning to `COc1cc2c[n+](C)c3c4cc5c(cc4ccc3c2cc1OC)OCO5` [NITIDINE CHLORIDE], the GI50 with 786-0 was 2.49 µM (inactive); in the test on A549, 0.18 µM (active); with CCRF-CEM, 0.752 µM (active); in the test on COLO 205 it was 1.66 µM (inactive); with HCT-15 it was greater than 100 µM; in the test with HOP-62, 2.18 µM (inactive). Moreover, the GI50 is 1.56 µM (inactive) in the test with HT-29; 2.9 µM (inactive) with Hs-578T; 1.03 µM (active) in the test with IGROV-1; 4.51 µM (inactive) with K562; 2.07 µM (inactive) in the test on KM12; 3.97 µM (inactive) with LOX IMVI. In addition, the GI50 was 14.5 µM (inactive) with Malme-3M; 3.61 µM (inactive) in the test on NCI-H226; 0.24 µM (active) in the test on NCI-H522; 27 µM (inactive) in the test with NCI/ADR-RES; 3.45 µM (inactive) with OVCAR-4; 2.33 µM (inactive) in the test with PC-3. The GI50 is 5.27 µM (inactive) with SK-MEL-5 and 0.877 µM (active) in the test with SK-OV-3.
Turning to `COC(=O)C1=NN2c3ccccc3CN([C@@H](C)c3ccccc3)C(=O)[C@@H]2C1`, the GI50 with 786-0 is 41.2 µM (inactive); with A549, 31.4 µM (inactive); in the test on CCRF-CEM, 25.7 µM (inactive); in the test on COLO 205, 35.6 µM (inactive); in the test on HCT-15, 31.7 µM; with HOP-62, 57.7 µM (inactive). In addition, the GI50 with HT-29 was 44.1 µM (inactive); in the test with Hs-578T, 41.1 µM (inactive); in the test on IGROV-1, 64.1 µM (inactive); with K562 it was 21.8 µM (inactive); in the test on KM12, 21.2 µM (inactive); in the test with LOX IMVI it was 25.5 µM (inactive). Further, the GI50 is 23.1 µM (inactive) in the test with Malme-3M; 54.1 µM (inactive) in the test on NCI-H226; 21.7 µM (inactive) in the test on NCI-H522; 21 µM (inactive) in the test on NCI/ADR-RES; 13.3 µM (inactive) with OVCAR-4; 31.4 µM (inactive) with PC-3. Further, the GI50 was 18.7 µM (inactive) with SK-MEL-5 and > 100 µM (inactive) in the test on SK-OV-3.
As to `Nc1nc(Cl)cc(Nc2cc(Cl)cc(Cl)c2)n1`, the GI50 with 786-0 is 17.4 µM (inactive); with A549, 24.8 µM (inactive); in the test with CCRF-CEM it was 28.5 µM (inactive); in the test with COLO 205, 22.4 µM (inactive); in the test with HCT-15, 20.7 µM; in the test on HOP-62, 29.2 µM (inactive). The GI50 is 17 µM (inactive) with HT-29; 16.8 µM (inactive) in the test on Hs-578T; 18.7 µM (inactive) in the test with IGROV-1; 30.8 µM (inactive) in the test on K562; 20.9 µM (inactive) in the test with KM12; 18.1 µM (inactive) in the test with LOX IMVI. Also, the GI50 in the test with Malme-3M is 22.3 µM (inactive); with NCI-H226, 18.7 µM (inactive); with NCI-H522, 10.9 µM (inactive); in the test on NCI/ADR-RES it was 21 µM (inactive); in the test with OVCAR-4, 21.7 µM (inactive); with PC-3 it was 19.7 µM (inactive). Also, the results for the GI50 with SK-MEL-5 and with SK-OV-3 were 19.8 µM (inactive) and 19.5 µM (inactive), respectively.
Take `Cc1nc2c(C)ccc([N+](=O)[O-])c2c(NCCCN(C)C)c1C`: the GI50 is > 90.8 µM (inactive) in the test on 786-0; > 47.1 µM (inactive) in the test with A549; 51.6 µM (inactive) with CCRF-CEM; 23.9 µM (inactive) with COLO 205; greater than 39.4 µM in the test with HCT-15; > 43.9 µM (inactive) in the test on HOP-62. Also, the GI50 was 24.7 µM (inactive) in the test with HT-29; 63 µM (inactive) in the test with Hs-578T; > 100 µM (inactive) with IGROV-1; 32.3 µM (inactive) with K562; > 100 µM (inactive) in the test with KM12; 44.3 µM (inactive) in the test with LOX IMVI. Moreover, the GI50 is 29 µM (inactive) in the test on Malme-3M; 67.1 µM (inactive) in the test on NCI-H226; 26.9 µM (inactive) in the test with NCI-H522; > 100 µM (inactive) in the test on NCI/ADR-RES; > 100 µM (inactive) in the test on OVCAR-4; 11.7 µM (inactive) in the test on PC-3. The values for the GI50 in the test with SK-MEL-5 and in the test with SK-OV-3 were 14.2 µM (inactive) and > 100 µM (inactive), respectively.
For `CCCc1nc(Cl)c(Cl)c(Cl)n1`, the GI50 was 19.9 µM (inactive) in the test with 786-0; 19.1 µM (inactive) with A549; 8.81 µM (inactive) in the test on CCRF-CEM; 25.4 µM (inactive) with COLO 205; 15.8 µM with HCT-15; 33.7 µM (inactive) in the test on HOP-62. Besides, the GI50 is > 47.6 µM (inactive) in the test on HT-29; 14.6 µM (inactive) in the test on Hs-578T; 17.4 µM (inactive) in the test with IGROV-1; 9.53 µM (inactive) in the test with K562; 38.6 µM (inactive) with KM12; 3.82 µM (inactive) in the test on LOX IMVI. For the same compound, the GI50 in the test on Malme-3M is 10.7 µM (inactive); in the test with NCI-H226 it was 36.6 µM (inactive); with NCI-H522, 12.4 µM (inactive); in the test with NCI/ADR-RES it was 27 µM (inactive); in the test on OVCAR-4, 16 µM (inactive); in the test with PC-3 it was 0.426 µM (active). Besides, the GI50 in the test on SK-MEL-5 is 44.5 µM (inactive); in the test on SK-OV-3, 53.6 µM (inactive).
